From ChEMBL document CHEMBL1127982, “Synthesis, chemical half-life and decomposition of new N3-(substituted) derivatives of CCNU” (Bioorg Med Chem Lett, 1994)

Assay: Partition coefficient (logD7.4)
Settings: octanol/water, pH 7.4; call rule not given here

Structure (SMILES) | logD
CC(C)N(C(=O)N(CCCl)N=O)C1CCCCC1 | 1.78
CC(O)CN(C(=O)NCCCl)C1CCCCC1 (centres undefined) | 0.37
CN(C(=O)NCCCl)C1CCCCC1 | 1.41
CC(C)(C)N(C(=O)N(CCCl)N=O)C1CCCCC1 | 2.46
CC(C)(C)N(C(=O)NCCCl)C1CCCCC1 | 3.03
CC(C)CN(C(=O)NCCCl)C1CCCCC1 | 1.93
C=CCN(C(=O)NCCCl)C1CCCCC1 | 1.48
O=NN(CCCl)C(=O)NC1CCCCC1 [LOMUSTINE] | 2.83
CC(C)N(C(=O)NCCCl)C1CCCCC1 | 2.36

Assay: HChemical half-life was determined, not active
Format: ADME
Settings: not given

Structure (SMILES) | T1/2
O=NN(CCCl)C(=O)N(CCCO)C1CCCCC1 | Not Active

Assay: Chemical half-life was determined
Settings: not given

Structure (SMILES) | half-life [h]
CC(C)N(C(=O)N(CCCl)N=O)C1CCCCC1 | 32.9
CC(O)CN(C(=O)N(CCCl)N=O)C1CCCCC1 (centres undefined) | 43.3
C#CCN(C(=O)N(CCCl)N=O)C1CCCCC1 | 76.8
CCN(C(=O)N(CCCl)N=O)C1CCCCC1 | 132
O=NN(CCCl)C(=O)N(C1CCCCC1)C1CCCCC1 | 62.6
O=NN(CCCl)C(=O)NC1CCCCC1 [LOMUSTINE] | 2.1
CN(C(=O)N(CCCl)N=O)C1CCCCC1 | 47.8
CCCN(C(=O)N(CCCl)N=O)C1CCCCC1 | 69.8

Assay: Chemical half-life was determined; not active
Format: ADME
Settings: not given

Structure (SMILES) | T1/2
CC(C)(C)N(C(=O)N(CCCl)N=O)C1CCCCC1 | Not Active
